Source: patent publication US9238644B2, “VEGFR3 inhibitors” (CANCER THERAPEUTICS CRC PTY LIMITED, priority 2012, dated 2016)

Experiments:
VEGFR3 = VEGFR3 (Homo sapiens (Human), UniProt P35916); experiment: VEGFR3 Phospho ELISA assay; format: cell-based; details: HMVEC-dLyAD cells, treated 1 hour, VEGFC stimulated; phospho VEGFR3 relative to Total VEGFR3
Protocol: Adult human dermal lymphatic microvascular endothelial cells (HMVEC-dLyAD) (Cat# CC-2810, Lonza) were seeded into clear-bottom, TC treated 12 well plates (Cat #665180, Greiner Bio-One) in EGM-2MV (Cat# CC-3202, Lonza) at 180,000 cells/well (volume 1 mL), and the plates incubated at 37° C. and 5% CO2 for 6 hours.
96 well Maxisorp immuno plates (Cat #439454, Nunc) were coated with 100 μL of Total VEGFR3 capture antibody (Part #841888, Human Total VEGFR3/FLT4 ELISA Kit, Cat # DYC3491, R&D Systems), or Phospho VEGFR3 Capture antibody (Part #841885, Human Phospho VEGFR3/FLT4 ELISA Kit, Cat# DYC2724, R&D Systems). The plates were covered and incubated at room temperature overnight.
The coating antibody was flicked out and the plates washed three times with Wash Buffer (Phosphate buffered saline (137 mM NaCl, 2.7 nM KCl, 8.1 nM Na2HPO4, 1.5 mL KH2PO4, pH 7.2-7.4), 0.05% Tween 20). 300 μL of blocking buffer (5% v/v Tween 20, 5% w/v sucrose in PBS) was then added to wells and plate incubated for 2 hours at room temperature. Blocking solution is flicked out and plates washed three times and tapped dry.
Compound dilution series were prepared in EBM-2 (Cat # CC-3156, Lonza)+0.1% BSA (Cat# A8412, Sigma) with constant 0.1% DMSO concentration. […]
Total VEGFR3 levels were quantified using a Multiskan Ascent plate reader and Ascent software fitted with 450 nm filter. […]

VEGFR2 = VEGFR2 (Homo sapiens (Human), UniProt P35968); experiment: VEGFR2 Phospho ELISA assay; details: HUVEC, treated 1 hour, VEGF stimulated; phospho VEGFR2 relative to Total VEGFR2
Chain of VEGFR2 (P35968 20-1356): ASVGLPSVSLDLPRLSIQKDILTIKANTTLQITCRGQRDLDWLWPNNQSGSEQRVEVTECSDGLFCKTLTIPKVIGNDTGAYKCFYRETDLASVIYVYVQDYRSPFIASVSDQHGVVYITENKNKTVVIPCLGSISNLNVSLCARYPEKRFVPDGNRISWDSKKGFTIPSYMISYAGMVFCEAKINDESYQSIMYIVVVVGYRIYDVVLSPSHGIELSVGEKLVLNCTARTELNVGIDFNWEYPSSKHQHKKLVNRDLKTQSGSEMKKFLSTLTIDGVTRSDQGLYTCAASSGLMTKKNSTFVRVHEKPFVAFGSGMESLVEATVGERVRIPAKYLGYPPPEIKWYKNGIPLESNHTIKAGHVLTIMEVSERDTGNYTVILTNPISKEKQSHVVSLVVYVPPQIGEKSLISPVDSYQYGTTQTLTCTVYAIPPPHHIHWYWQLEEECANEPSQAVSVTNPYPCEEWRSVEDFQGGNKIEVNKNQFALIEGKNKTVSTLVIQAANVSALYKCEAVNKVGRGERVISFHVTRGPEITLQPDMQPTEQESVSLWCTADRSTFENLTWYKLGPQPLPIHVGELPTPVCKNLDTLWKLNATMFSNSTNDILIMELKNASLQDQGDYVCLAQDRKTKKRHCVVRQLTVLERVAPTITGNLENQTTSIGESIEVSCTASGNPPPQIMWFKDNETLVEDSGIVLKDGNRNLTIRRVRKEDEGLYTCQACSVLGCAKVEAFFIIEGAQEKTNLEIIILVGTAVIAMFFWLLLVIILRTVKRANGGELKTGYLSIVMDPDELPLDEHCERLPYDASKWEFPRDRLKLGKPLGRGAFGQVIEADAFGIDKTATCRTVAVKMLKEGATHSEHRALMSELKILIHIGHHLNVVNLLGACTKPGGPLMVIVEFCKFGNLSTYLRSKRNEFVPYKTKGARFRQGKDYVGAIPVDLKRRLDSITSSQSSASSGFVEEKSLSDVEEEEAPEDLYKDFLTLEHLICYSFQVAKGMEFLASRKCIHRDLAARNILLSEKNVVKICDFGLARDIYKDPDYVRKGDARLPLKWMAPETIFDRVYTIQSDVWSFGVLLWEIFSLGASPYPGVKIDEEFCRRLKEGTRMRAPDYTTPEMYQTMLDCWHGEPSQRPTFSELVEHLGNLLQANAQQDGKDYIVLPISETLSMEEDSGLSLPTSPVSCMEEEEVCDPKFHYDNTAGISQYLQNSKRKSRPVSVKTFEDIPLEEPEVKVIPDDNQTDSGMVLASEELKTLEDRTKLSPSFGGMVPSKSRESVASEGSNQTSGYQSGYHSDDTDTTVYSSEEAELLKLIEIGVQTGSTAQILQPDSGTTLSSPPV

[1] = target: VEGFR3 cytoplasmic domain (Homo sapiens, UniProt P35916); experiment: VEGFR3 Biochemical assay (AlphaScreen); details: N-terminal GST-fusion enzyme, 500 μM ATP, 90 minutes at 30 degree Celsius (modified form: Hexa-His-fusion, 1 μM ATP)
Chain of VEGFR3 cytoplasmic domain (P35916 25-1363 limits assumed): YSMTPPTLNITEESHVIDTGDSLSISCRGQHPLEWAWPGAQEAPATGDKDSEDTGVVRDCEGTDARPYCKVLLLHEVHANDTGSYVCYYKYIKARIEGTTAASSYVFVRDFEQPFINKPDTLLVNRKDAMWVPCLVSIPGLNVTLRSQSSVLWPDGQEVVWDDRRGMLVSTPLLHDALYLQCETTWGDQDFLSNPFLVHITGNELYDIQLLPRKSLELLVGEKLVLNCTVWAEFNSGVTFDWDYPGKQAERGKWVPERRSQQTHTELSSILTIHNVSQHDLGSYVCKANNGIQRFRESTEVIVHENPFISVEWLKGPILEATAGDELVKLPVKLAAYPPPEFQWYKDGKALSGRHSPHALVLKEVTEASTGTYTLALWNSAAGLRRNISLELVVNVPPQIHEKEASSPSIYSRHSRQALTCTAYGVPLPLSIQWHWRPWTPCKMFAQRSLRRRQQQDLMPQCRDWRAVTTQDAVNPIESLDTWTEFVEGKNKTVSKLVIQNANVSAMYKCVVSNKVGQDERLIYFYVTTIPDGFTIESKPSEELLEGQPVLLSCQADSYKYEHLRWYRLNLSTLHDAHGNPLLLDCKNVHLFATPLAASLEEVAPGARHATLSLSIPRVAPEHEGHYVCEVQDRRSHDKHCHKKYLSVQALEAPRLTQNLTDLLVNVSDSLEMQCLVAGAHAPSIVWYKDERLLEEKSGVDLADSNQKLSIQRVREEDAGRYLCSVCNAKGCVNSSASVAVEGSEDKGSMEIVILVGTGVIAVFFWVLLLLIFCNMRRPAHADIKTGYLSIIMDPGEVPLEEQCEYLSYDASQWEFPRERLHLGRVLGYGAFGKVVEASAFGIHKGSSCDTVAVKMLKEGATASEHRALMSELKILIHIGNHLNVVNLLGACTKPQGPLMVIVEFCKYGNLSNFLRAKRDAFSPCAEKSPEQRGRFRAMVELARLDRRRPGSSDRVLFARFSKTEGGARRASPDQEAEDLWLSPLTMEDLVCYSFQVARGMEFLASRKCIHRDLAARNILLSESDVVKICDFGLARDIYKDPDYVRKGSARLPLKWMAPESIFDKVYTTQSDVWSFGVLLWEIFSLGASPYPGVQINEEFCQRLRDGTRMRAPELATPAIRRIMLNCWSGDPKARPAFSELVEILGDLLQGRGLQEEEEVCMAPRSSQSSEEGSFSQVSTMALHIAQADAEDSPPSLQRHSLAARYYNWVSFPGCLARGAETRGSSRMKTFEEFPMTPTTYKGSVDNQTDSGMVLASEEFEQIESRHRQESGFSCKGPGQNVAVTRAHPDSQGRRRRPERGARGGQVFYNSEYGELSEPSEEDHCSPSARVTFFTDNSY

Chain of VEGFR3 (P35916 25-1363): as the sequence (P35916 25-1363 limits assumed) above

## CCC(C(N)=O)c1ccccc1CCc1nc(Nc2ccc(C3CCNCC3)cc2)ncc1C(F)(F)F (racemic) [Compound 1, 2-(2-(2-(2-((4-(piperidin-4-yl)phenyl)amino)-5-(trifluoromethyl)pyrimidin-4-yl)ethyl)phenyl)butanamide]
VEGFR3
  IC50: 173 nM
VEGFR2
  IC50: > 10000 nM
[1]
  IC50: 91 nM

## CC(C(N)=O)c1ccccc1CCc1nc(Nc2cnn(C3CCNCC3)c2)ncc1C(F)(F)F (racemic) [Compound 56, 2-(2-(2-(2-((1-(piperidin-4-yl)-1H-pyrazol-4-yl)amino)-5-(trifluoromethyl)pyrimidin-4-yl)ethyl)phenyl)propanamide]
VEGFR2
  IC50: 2220 nM

## CC(C(N)=O)c1ccccc1CCc1nc(Nc2cnn(C3CCN(C)CC3)c2)ncc1C(F)(F)F (single isomer, unassigned) [Compound 57-2A, 2-(2-(2-(2-((1-(1-Methylpiperidin-4-yl)-1H-pyrazol-4-yl)amino)-5-(trifluoromethyl)pyrimidin-4-yl)ethyl)phenyl)propanamide]
VEGFR2
  IC50: 382 nM

## NC(=O)C1(c2ccccc2CCc2nc(Nc3ccc(C(F)(F)F)nc3)ncc2C(F)(F)F)CC1 [Compound 10]
[1]
  IC50: 92 nM
